Measurements published in BindingDB's records for doi:10.1021/ml5002757 (Therachem Research Medilab (India), 2014).

Biological target: Free fatty acid receptor 1 (Homo sapiens, UniProt O14842)
Assay: Modulation activity at human GPR40 expressed in HEK293 cells by IP-1 detection based HTRF assay

Sequence of Free fatty acid receptor 1 (O14842 whole entry): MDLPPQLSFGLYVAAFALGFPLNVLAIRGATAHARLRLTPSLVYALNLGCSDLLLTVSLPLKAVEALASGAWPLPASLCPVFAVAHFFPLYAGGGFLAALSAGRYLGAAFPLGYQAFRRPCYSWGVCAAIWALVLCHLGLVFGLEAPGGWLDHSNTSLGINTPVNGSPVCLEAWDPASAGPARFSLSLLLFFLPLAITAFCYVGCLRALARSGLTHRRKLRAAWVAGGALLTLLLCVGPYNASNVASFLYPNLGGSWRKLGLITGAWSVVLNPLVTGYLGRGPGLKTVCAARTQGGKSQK

EC50: 560 nM
SMILES: Cc1ccccc1Oc1ccc(N2N=C(C#N)CC2CC(=O)O)cc1 (stereo unspecified)
